# Laboratory results reported in article PMC9481533, “Structure-based discovery of small molecules that disaggregate Alzheimer’s disease tissue derived tau fibrils in vitro” (Nature Communications, 2022).
# Values joined by “and” are separate entries in the source; they are usually repeats but may differ in a detail not shown here. Identical values can stand only once.
# How the values were obtained:
# [1] = target: crude AD brain extracts (tau seeds) in HEK293T tau biosensor cells (Homo sapiens, UniProt P10636); experiment: Tau biosensor cell seeding assay, screen with crude AD brain extracts; assay type: cell-based; conditions: for Number of seeded aggregates in tau biosensor cells (normalized to confluence), Fig. 2e: 10 μM inhibitor on cells, seeds pre-incubated 16–18 h at 4 °C, individual replicates (n=3), DMSO control 10734.9/12808.5/11145.3; for Inhibition of seeding in biosensor cells: 10 μM screen
# Sequence of crude AD brain extracts (tau seeds) in HEK293T tau biosensor cells (P10636 623-695 limits assumed): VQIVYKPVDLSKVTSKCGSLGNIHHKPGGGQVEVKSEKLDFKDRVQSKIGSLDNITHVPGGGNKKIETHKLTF
# Excerpt: From the in silico screen, compounds were ranked and 46 were selected for further experimental validation based on the total binding energy of the ligand/fibril complex. The experimental assessment consisted of direct measures of fibril disassembly (Fig. 2d, e and Supplementary Table 3) and assessment of the seeding capability of the products of disassembled AD tau fibrils in a biosensor cell assay. Disaggregating molecules that produce active seeds are undesirable for therapy and are excluded from further study. HEK293T cells expressing CFP- or YFP-fused tau are transduced with exogenous AD tau fibrils. Externally applied AD-tau fibrils then induce the aggregation of the endogenous fluorescent tau, resulting in the formation of FRET-positive intracellular aggregates, visible as bright puncta by fluorescence microscopy (Fig. 2f). Automated image analysis of visible puncta provides an objective quantification of seeded aggregation. […] Although biosensors may be limited in reporting structural characteristics of fibril progeny, they offer exquisitely sensitive measures of tau seeding activity—the ability for fibrils to recruit monomeric protein into fibrillar form, which is thought to be the mechanism for tau spreading in AD.
# (§1) Human autopsy samples were obtained by the Mayo Clinic Brain Bank and UCLA Pathology Department according to HHS regulations from patients consenting to autopsy. Samples were provided to the researchers of this study as anonymized tissues. For purification of paired helical filaments (PHFs) and straight filaments (SFs) from AD brain tissue, extractions were performed according to the previously published protocol without any modifications. […] For biosensor seeding assays with crude AD brain extracts, fresh-frozen tissue from neuropathologically confirmed AD cases was thawed and cut into a 0.2–0.3 g sections. Tissue was manually homogenized in a 15 ml disposable tube in 1 ml of 50 mM Tris, pH 7.4 with 150 mM NaCl, and then aliquoted to PCR tubes and sonicated in a cuphorn bath for 120 min under 30% power at 4 °C in a recirculating ice water bath, according to reference.
# (§2) HEK293T cell lines stably expressing tau-K18 P301S-eYFP were obtained from Marc Diamond[25] and used without further characterization or authentication. […] Inhibitors were dissolved in DMSO. […] After twenty minutes, 10 µl of fibrils were added to 90 µl of tau biosensor cells. The number of seeded aggregates was determined by imaging the entire well of a 96-well plate in triplicate using a Celigo Image Cytometer (Nexcelom) in the YFP channel. The number of aggregates in a given image was determined using an ImageJ 2.3.0[50] script, which subtracts the background fluorescence from unseeded cells, and then counts the number of aggregates as peaks with fluorescence above the background using the built-in Particle Analyzer. The number of aggregates was normalized to the confluence of each well, and dose-response plots were generated by calculating the average and standard deviations from triplicate measurements.
# [2] = target: brain-purified AD-tau fibrils in HEK293T tau biosensor cells (Homo sapiens, UniProt P10636); experiment: Tau biosensor cell seeding assay, dose-dependent inhibition with brain-purified AD-tau fibrils; assay type: cell-based; conditions: for Number of seeded aggregates, Supp. Fig. 7: individual replicates
# Sequence of brain-purified AD-tau fibrils in HEK293T tau biosensor cells (P10636 623-695 limits assumed): as above
# Description: as §1, §2
# [3] = target: T1, AD brain-derived tau fibrils (Homo sapiens, UniProt P10636); experiment: Negative stain EM and quantitative EM (qEM) of tau fibrils after compound treatment; assay type: biochemical; conditions: for Quantitation of fibril number on EM images (qEM), Fig. 3c: relative scale, fibrils alone about 1, individual replicates of 33 micrographs
# T1 sequence (P10636 623-695 limits assumed): as above
# Description: Negatively stained EM Grids were prepared by depositing 6 µl of sample on formvar/carbon-coated copper grids (400 mesh) for 3 min. The sample was rapidly wicked using filter paper without drying the grid and stained with 1% uranyl acetate for 2 min. […] Fibrils were counted from collections of 33 micrographs (in triplicate) for each experimental condition.
# [4] = target: T1, AD brain-derived tau fibrils; experiment: Western blot of insoluble tau after compound treatment; assay type: biochemical; conditions: 72 h at 37 °C
# Description: Proteins were transferred from gel to nitrocellulose membrane using an iBLOT2 system. The membrane was blocked for 1 h in TBST with 5% milk and washed with TBST three times. The membrane was then incubated with primary antibody (anti-tau A0024 (Dako), 1:4000 dilution in 2% milk/TBST solution) for 1 h, washed three times with TBST, incubated with horseradish peroxidase-conjugated secondary antibody (goat anti-mouse IgG H and L (HRP); 1:5000 Dilution in 2% milk/TBST), and washed three times in TBST.
# MTT cytotoxicity assay = assay type: cell-based; conditions: mouse, Neuro2a cells, Neuro2a; final small molecule concentration 10 µM; 24 h; vehicle = 100% viable; individual replicates; read-out: MTT cell viability, compound alone, Fig. 3f
# Description: (§3) In all, 90 µL of Neuro2a cells were plated on clear 96 well plates (Falcon 353072) at 6000 cells per well and given 24 h to adhere to the plate. Subsequent treatment consisted of PHF samples that were co-incubated with or without 100 µM of small molecules for 48 h at 37 °C, with 10 µl applied per well for a final small molecule concentration of 10 µM. After another 24-h incubation at 37 °C, 20 µl of Thiazolyl Blue Tetrazolium Bromide MTT dye (Sigma; 5 mg/ml stock in DPBS) was added to each well and further incubated for 3.5 h at 37 °C. The assay was arrested by replacement of all media with 100% DMSO and transferred to a SpectraMax MF reader. Background 700 nm readings were subtracted from the absorbance readings at 570 nm. Cells treated with 100% DMSO were designated as 0% viable and those treated only with vehicle were designated as 100% viable. Other well readings were normalized to these values.
# Neuro2a cells = experiment: MTT cytotoxicity assay; assay type: cell-based; conditions: for MTT cell viability, compound alone, Fig. 3f: Neuro2a, final small molecule concentration 10 µM, 24 h, vehicle = 100% viable, individual replicates, 10 µM
# Description: as §3
# Brain-derived tau PHFs = Brain-derived tau PHFs (Homo sapiens, UniProt P10636); experiment: Dot blot analysis of EGCG time course (GT38, AT8); assay type: biochemical; conditions: for GT38 dot blot signal (AD tau aggregates), Supp. Fig. 1 / AT8 dot blot signal (total hyperphosphorylated tau), Supp. Fig. 1: replicates
# Sequence of Brain-derived tau PHFs (P10636 623-695 limits assumed): as above
# Description: Samples were spotted onto nitrocellulose membrane, 20 µl were spotted for each condition, spotting 2 µl at a time and allowing to dry in between. The membrane was blocked for 1 h in TBST with 5% milk and washed with TBST three times. The membrane was then incubated with primary antibody (either anti-tau GT38 (obtained from Virginia Lee lab at UPenn) or anti-phospho-tau AT8 (cat # MN1020, lot # UL2906281Z), 1:4000 dilution in 2% milk/TBST solution) for 1 h, washed three times with TBST, incubated with horseradish peroxidase-conjugated secondary antibody (goat anti-mouse IgG H and L (HRP); 1:5000 Dilution in 2% milk/TBST), and washed three times in TBST. Signal was detected with Pierce ECL Plus Western Blotting Substrate (cat # 32132), and the blot was imaged with a Pharos FX Plus Molecular Imager.
# AD-tau PHF = AD-tau PHF (Homo sapiens, UniProt P10636); experiment: CryoEM occupancy analysis of EGCG density; assay type: binding; conditions: for Occupancy of density at Site 1 relative to fibril backbone / Occupancy of density at Site 2 relative to fibril backbone / Occupancy of density at Site 3 relative to fibril backbone: map low-pass filtered to 7 Å
# Sequence of AD-tau PHF (P10636 623-697 limits assumed): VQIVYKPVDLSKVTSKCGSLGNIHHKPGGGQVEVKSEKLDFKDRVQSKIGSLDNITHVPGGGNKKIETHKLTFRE
# [5] = system: biosensor cells (HEK293T); experiment: Toxicity to biosensor cells under seeding assay conditions; assay type: cell-based; conditions: under the assayed conditions (10 μM screen)
# Description: HEK293T cell lines stably expressing tau-K18 P301S-eYFP were obtained from Marc Diamond[25] and used without further characterization or authentication. Cells were maintained in DMEM (Life Technologies, cat. 11965092) supplemented with 10% (vol/vol) FBS (Life Technologies, cat. A3160401), 1% penicillin/streptomycin (Life Technologies, cat. 15140122), and 1% Glutamax (Life Technologies, cat. 35050061) at 37 °C, 5% CO2 in a humidified incubator. […] Inhibitors were dissolved in DMSO. For seeding, inhibitor-treated seeds were sonicated in a cuphorn water bath for 3 min, and then mixed with 1 volume of […] (Life Technologies, cat. 11668027) prepared by diluting 1 µl of Lipofectamine in 19 µl of OptiMEM. After twenty minutes, 10 µl of fibrils were added to 90 µl of tau biosensor cells. The number of seeded aggregates was determined by imaging the entire well of a 96-well plate in triplicate using a Celigo Image Cytometer (Nexcelom) in the YFP channel. The number of aggregates in a given image was determined using an ImageJ 2.3.0[50] script, which subtracts the background fluorescence from unseeded cells, and then counts the number of aggregates as peaks with fluorescence above the background using the built-in Particle Analyzer. […]
compound,measurement,setting,value
"O=C(Nc1cccc(C(F)(F)F)c1)N1c2ccccc2Sc2ccccc21 [CNS-17, N-[3-(trifluoromethyl)phenyl]-10H-phenothiazine-10-carboxamide]","Number of seeded aggregates in tau biosensor cells (normalized to confluence), Fig. 2e",[1]; listed as 6870810,4788.26 and 4837.93 and 6713.19
same,IC50,"[2]; brain-purified AD-tau fibrils, read-out: IC50, inhibition of seeding efficiency in biosensor cells",< 5 µM
same,"Number of seeded aggregates, Supp. Fig. 7",[2]; inhibitor concentration 1 (µM),12634.1 and 17143.6 and 11095.2
same,"Number of seeded aggregates, Supp. Fig. 7",[2]; inhibitor concentration 2 (µM),9200.81 and 9676.73 and 6081.22
same,"Number of seeded aggregates, Supp. Fig. 7",[2]; inhibitor concentration 5 (µM),9500.56 and 10385 and 5182.56
same,"Number of seeded aggregates, Supp. Fig. 7",[2]; inhibitor concentration 10 (µM),11886 and 11650.5 and 6860.55
same,"Number of seeded aggregates, Supp. Fig. 7",[2]; inhibitor concentration 40 (µM),3439.45 and 1968.58 and 2178.79
same,Fibril reduction by qEM,[3],a corresponding reduction in fibril density was not seen by qEM
same,"Quantitation of fibril number on EM images (qEM), Fig. 3c",[3],0.7296 and 1.4265 and 0.6447
same,Reduction of insoluble tau by Western blot,[4],reduction in insoluble tau species
same,"viability at 24 h, 10 µM",MTT cytotoxicity assay,74.1%
same,"MTT cell viability, compound alone, Fig. 3f",Neuro2a cells,66.6981% and 63.9984%
"O=C(O[C@@H]1Cc2c(O)cc(O)cc2O[C@@H]1c1cc(O)c(O)c(O)c1)c1cc(O)c(O)c(O)c1 [EGCG, Epigallocatechin gallate]","Number of seeded aggregates in tau biosensor cells (normalized to confluence), Fig. 2e",[1]; listed as EGCG-PBS,1.145 and 4.487 and 178.587
same,Inhibition of seeding in biosensor cells,[1],prevents the formation of any seeds
same,Electron microscopy of tau fibrils treated with compound (qualitative),[3]; negative stain EM,nearly gone after 24 h of incubation
same,"Quantitation of fibril number on EM images (qEM), Fig. 3c",[3],0 and 0.009982
same,Reduction of insoluble tau by Western blot,[4],substantially reduce the amount of insoluble tau
same,"viability at 24 h, 10 µM",MTT cytotoxicity assay,102%
same,Neuronal cytotoxicity of compound,"Neuro2a cells; Neuro 2a (N2a) cells, MTT",no significant cytotoxicity
same,"MTT cell viability, compound alone, Fig. 3f",Neuro2a cells,108.947% and 94.1622%
same,Time at which reduction in aggregate level begins (GT38 dot blot),Brain-derived tau PHFs; 37 °C,1 to 3 h
same,"GT38 dot blot signal (AD tau aggregates), Supp. Fig. 1","Brain-derived tau PHFs; EGCG incubation 1 h at 37 °C, relative to 0 h",0.7905 and 0.6952 and 0.7857
same,"AT8 dot blot signal (total hyperphosphorylated tau), Supp. Fig. 1",Brain-derived tau PHFs; EGCG incubation 1 h at 37 °C,0.7495 and 1.415 and 0.8474
same,"AT8 dot blot signal (total hyperphosphorylated tau), Supp. Fig. 1",Brain-derived tau PHFs; EGCG incubation 3 h at 37 °C,1.189 and 1.169 and 0.7844
same,"GT38 dot blot signal (AD tau aggregates), Supp. Fig. 1",Brain-derived tau PHFs; EGCG incubation 3 h at 37 °C,0.6381 and 0.5905 and 0.6857
same,"AT8 dot blot signal (total hyperphosphorylated tau), Supp. Fig. 1",Brain-derived tau PHFs; EGCG incubation 6 h at 37 °C,1.107 and 1.408 and 0.8471
same,"GT38 dot blot signal (AD tau aggregates), Supp. Fig. 1",Brain-derived tau PHFs; EGCG incubation 6 h at 37 °C,0.3571 and 0.3381 and 0.6238
same,"AT8 dot blot signal (total hyperphosphorylated tau), Supp. Fig. 1",Brain-derived tau PHFs; EGCG incubation 24 h at 37 °C,1.122 and 1.203 and 1.059
same,"GT38 dot blot signal (AD tau aggregates), Supp. Fig. 1",Brain-derived tau PHFs; EGCG incubation 24 h at 37 °C,0.2286 and 0.2714 and 0.4143
same,Occupancy of density at Site 1 relative to fibril backbone,AD-tau PHF; 1-hour EGCG,43%
same,Occupancy of density at Site 2 relative to fibril backbone,AD-tau PHF; 1-hour EGCG,44%
same,Occupancy of density at Site 3 relative to fibril backbone,AD-tau PHF; 1-hour EGCG,54%
same,Occupancy of EGCG at Site 1,AD-tau PHF; 3-h structure,66%
same,Occupancy of density at Site 1 relative to fibril backbone,AD-tau PHF; 3 hr. EGCG,67%
same,Occupancy of density at Site 2 relative to fibril backbone,AD-tau PHF; 3 hr. EGCG,56%
same,Occupancy of density at Site 3 relative to fibril backbone,AD-tau PHF; 3 hr. EGCG,62%
"Oc1cccc(-c2c3nc(c(-c4cccc(O)c4)c4ccc([nH]4)c(-c4cccc(O)c4)c4nc(c(-c5cccc(O)c5)c5ccc2[nH]5)CC4)C=C3)c1 [FDA-A4, Temoporfin]","Number of seeded aggregates in tau biosensor cells (normalized to confluence), Fig. 2e",[1],356.976 and 1174.27 and 1749.15
same,Inhibition of seeding in biosensor cells,[1],effective inhibitor
same,Toxicity to biosensor cells,[5],toxic to biosensor cells
